According to US4472386A, “5-Fluoro-(β-uridine or 2'-deoxy-β-uridine) derivatives, a process for producing the same and a carcinostatic agent containing the same” (Toyama Chemical Co., Ltd., priority 1978, dated 1984):

Columns and labels:
[1] = test system: Ehrlich ascites carcinoma; assay: Inhibition of Ehrlich solid tumor in mice, intraperitoneal administration (Table 1); type: in vivo, ddY mice
Description: (§1) 1. Experiment on the inhibition of Ehrlich solid tumor
Ehrlich ascites carcinoma was subcutaneously inoculated into the right inguinal region of ddY mice (5 weeks old, male, 8 mice per group) with 3×10^6 cells per mouse.
24 Hours after the inoculation, a test drug suspended or dissolved in 5% HCO 60 (a product manufactured by Nikkol) was administered intraperitoneally successively once daily for 7 days. To the control group, the same quantity as above of 5% HCO 60 was intraperitoneally administered in the same manner. Fourteen days after the inoculation, the tumor was excised and weighed, from which the average tumor weight ratio between the test group and the control group (T/C) was determined.

[2] = test system: Ehrlich ascites carcinoma; assay: Inhibition of Ehrlich solid tumor in mice, oral administration starting six days after inoculation (Table 2); type: in vivo, ddY mice
Description: as §1
Ehrlich ascites carcinoma was subcutaneously inoculated into the inguinal region of ddY mice (5 weeks old, male, 8 mice per group) with 3×10^6 cells per mouse. Six days after the inoculation, a test drug dissolved or suspended in 0.5% CMC solution was administered orally to the test group successively once daily for 10 days, while the same quantity as above of 0.5% CMC solution was orally administered to the control group. Twenty one days after the inoculation, the tumor was excised and weighed, from which the average tumor weight ratio between the test group and the control group (T/C) was determined.

[3] = test system: Sarcoma-180 ascites tumor; assay: Inhibition of Sarcoma-180 ascites tumor in mice, intravenous administration (Table 3); type: in vivo, ddY mice; settings: 10 mg/kg i.v. once daily for 7 days
Description: 2. Experiment on the inhibition of Sarcoma-180 ascites tumor
Sarcoma-180 ascites tumor was subcutaneously inoculated into the right inguinal region of ddY mice (5 weeks old, male, 8 mice per group) with 3×10^6 cells per mouse. Twenty four hours after the inoculation,a test drug dissolved in 10% polyethylene glycol was administered intravenously to the test group successively once daily for 7 days, while the same quantity as above of 10% polyethylene glycol was intravenously administered to the control group. Ten days after the inoculation, the tumor was excised and weighed, from which the average tumor weight ratio between the test group and the control group (T/C) was determined.

[4] = Acute toxicity test (b), oral LD50 (Table 4); settings: mouse, in vivo; oral, 3 weeks, Van der Waerden method
Description: (b) The test compound was suspended in 0.25% CMC solution and administered orally to SLC-ddY mice (5 weeks old, male, 6 mice per group). The number of dead mice was counted over the subsequent 3 weeks. LD50 value was calculated according to the method of Van der Waerden.

[5] = test system: Ehrlich ascites carcinoma; assay: Carcinostatic test, oral, ED values (Table 5); type: in vivo, ddY mice; settings: Mus musculus, 336 h, oral once daily for 10 days, least square method
Description: Ehrlich ascites carcinoma was subcutaneously inoculated into the right inguinal region of ddY mice (5 weeks old, male, 8 mice per group) with 8×10^6 cells per mouse. Twenty four hours after the inoculation,5, 10, 20 or 40 mg/kg of a test drug suspended or dissolved in polyethylene glycol was administered orally to the test group successively once daily for 10 days, while the same quantity as above of 10% polyethylene glycol was administered orally to the control group. Fourteen days after the inoculation, the tumor was excised and weighed, from which the average tumor weight ratio between the test group and the control group (T/C) was calculated. ED value was determined by the least square method.

[6] = C. Heidelberger et al. (1958); cited from earlier work
[7] = C. Heidelberger et al. (1958); cited from earlier work; remark: listed apart in the source
[8] = cited from earlier work
[9] = test system: nucleotide-phosphorylase; settings: G. D. Birnie (1963); cited from earlier work
[10] = 40 mg/kg i.p. once daily for 7 days
[11] = 60 mg/kg orally once daily for 10 days

SMILES: O=c1[nH]c(=O)n([C@H]2C[C@H](O)[C@@H](CO)O2)cc1F [FUDR, 5-fluoro-2'-deoxy-β-uridine, reference compound]
- Body weight change [1, 10]: +6.5 g
- No. of surviving mice/No. of total mice used [1, 10]: 8/8
- response vs control in vivo at 40 mg/kg ([1]; Mus musculus, Ehrlich, ip, 336 h, read-out: T/C (average tumor weight ratio between test group and control group)): 47.1%
- Body weight change [2, 11]: -2.7 g
- No. of surviving mice/No. of total mice used [2, 11]: 8/8
- T/C (average tumor weight ratio between test group and control group) ([2]; 60 mg/kg orally once daily for 10 days from day 6, Ehrlich, day 21): 48.6%
- Body weight change [3]: +3.9 g
- No. of surviving mice/No. of total mice used [3]: 8/8
- T/C (average tumor weight ratio between test group and control group) ([3]; Sarcoma-180, day 10): 56.3%
- LD50 at 504 h [4]: 1330 mg/kg
- ED30 ([5]; read-out: ED30): 19 mg/kg
- ED40 ([5]; read-out: ED40): 24 mg/kg
- carcinostatic activity in vitro [6]: intense carcinostatic activity in vitro
- toxicity [7]: low toxicity
- persistency in vivo [8]: lacks persistency
- excretion ([8]; in vivo): excreted rapidly
- decomposition by nucleotide-phosphorylase to yield 5-fluorouracil [9]: readily decomposed by nucleotide-phosphorylase
